PMC9329436, “Optimization of the 4-anilinoquin(az)oline scaffold as epidermal growth factor receptor (EGFR) inhibitors for chordoma utilizing a toxicology profiling assay platform” (Scientific Reports, 2022)
Like-named read-outs stand apart in the source and are kept apart here.

Experiments:
Assay type in all cases: biochemical
[1] = target: 320 wild-type protein kinases (Homo sapiens, UniProt Q5TCY1); conditions: kinase TTBK1, singlicate
Description: (§1) Table S4. Profiling of two compounds at two concentrations against 320 wild-type protein kinases; singlicate measurement; Residual activities (% of control).

[2] = target: 320 wild-type protein kinases (Homo sapiens, UniProt P35916); conditions: kinase VEGF-R3, singlicate
Sequence of 320 wild-type protein kinases (Homo sapiens, UniProt P35916) (P35916 25-1363): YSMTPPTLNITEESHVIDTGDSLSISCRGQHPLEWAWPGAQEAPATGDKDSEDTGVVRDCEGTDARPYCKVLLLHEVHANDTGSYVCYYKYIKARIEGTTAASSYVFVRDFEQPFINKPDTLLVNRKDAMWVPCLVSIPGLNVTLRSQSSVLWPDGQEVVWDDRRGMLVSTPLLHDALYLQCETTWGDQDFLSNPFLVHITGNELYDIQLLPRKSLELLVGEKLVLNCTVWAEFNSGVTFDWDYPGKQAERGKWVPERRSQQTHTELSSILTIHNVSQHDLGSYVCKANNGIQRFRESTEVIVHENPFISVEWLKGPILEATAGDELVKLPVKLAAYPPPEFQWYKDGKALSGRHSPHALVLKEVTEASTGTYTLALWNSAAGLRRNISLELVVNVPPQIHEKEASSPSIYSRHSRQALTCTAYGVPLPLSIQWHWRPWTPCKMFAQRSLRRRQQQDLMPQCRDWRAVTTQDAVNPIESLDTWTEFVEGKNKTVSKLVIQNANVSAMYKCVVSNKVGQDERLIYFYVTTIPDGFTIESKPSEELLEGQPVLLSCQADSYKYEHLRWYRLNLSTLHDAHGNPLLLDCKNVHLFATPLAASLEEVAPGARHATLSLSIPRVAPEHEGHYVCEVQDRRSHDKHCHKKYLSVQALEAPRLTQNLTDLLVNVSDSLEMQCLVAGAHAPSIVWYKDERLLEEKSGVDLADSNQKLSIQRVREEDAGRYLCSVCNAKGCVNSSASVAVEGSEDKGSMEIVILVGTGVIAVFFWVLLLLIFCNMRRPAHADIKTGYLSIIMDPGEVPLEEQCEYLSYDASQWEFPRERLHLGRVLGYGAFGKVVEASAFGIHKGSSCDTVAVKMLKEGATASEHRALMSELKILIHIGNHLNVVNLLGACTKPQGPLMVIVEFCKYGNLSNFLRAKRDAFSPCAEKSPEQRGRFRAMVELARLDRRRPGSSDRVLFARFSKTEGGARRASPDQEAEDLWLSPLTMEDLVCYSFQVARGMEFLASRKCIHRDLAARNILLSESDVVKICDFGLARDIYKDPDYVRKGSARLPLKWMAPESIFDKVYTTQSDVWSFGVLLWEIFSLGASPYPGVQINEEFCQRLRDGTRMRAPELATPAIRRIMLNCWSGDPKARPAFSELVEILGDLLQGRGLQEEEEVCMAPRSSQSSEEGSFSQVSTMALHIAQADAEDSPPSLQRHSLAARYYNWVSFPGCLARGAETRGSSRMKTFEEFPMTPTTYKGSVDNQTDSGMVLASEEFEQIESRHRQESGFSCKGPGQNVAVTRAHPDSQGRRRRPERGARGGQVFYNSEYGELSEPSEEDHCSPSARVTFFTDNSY
Description: as §1

[3] = target: 320 wild-type protein kinases (Homo sapiens, UniProt P42345); conditions: mTOR, singlicate
Description: as §1

[4] = target: 320 wild-type protein kinases (Homo sapiens, UniProt P04629); conditions: kinase TRK-A, singlicate
Description: as §1

[5] = target: T1, 320 wild-type protein kinases (Homo sapiens, UniProt Q13976); conditions: kinase PRKG1, singlicate
T1 sequence (Q13976 1-671): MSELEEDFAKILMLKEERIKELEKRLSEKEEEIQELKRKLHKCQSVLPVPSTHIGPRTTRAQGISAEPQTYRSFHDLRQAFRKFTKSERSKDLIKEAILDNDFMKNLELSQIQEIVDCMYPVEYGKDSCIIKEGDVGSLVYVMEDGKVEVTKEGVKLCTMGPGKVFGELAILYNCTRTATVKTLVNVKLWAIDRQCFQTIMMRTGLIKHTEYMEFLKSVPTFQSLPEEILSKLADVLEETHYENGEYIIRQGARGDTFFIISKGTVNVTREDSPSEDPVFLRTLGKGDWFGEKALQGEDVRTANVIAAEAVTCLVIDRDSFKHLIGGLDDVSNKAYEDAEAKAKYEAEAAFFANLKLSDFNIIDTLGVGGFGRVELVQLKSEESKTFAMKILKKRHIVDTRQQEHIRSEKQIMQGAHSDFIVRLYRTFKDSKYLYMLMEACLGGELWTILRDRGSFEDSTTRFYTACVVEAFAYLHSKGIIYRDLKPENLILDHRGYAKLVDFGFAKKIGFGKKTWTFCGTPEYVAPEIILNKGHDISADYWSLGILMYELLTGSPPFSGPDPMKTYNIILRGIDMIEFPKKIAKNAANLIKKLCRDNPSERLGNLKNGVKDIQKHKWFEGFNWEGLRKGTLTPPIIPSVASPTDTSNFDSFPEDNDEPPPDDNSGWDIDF
Description: as §1

[6] = target: 320 wild-type protein kinases (Homo sapiens, UniProt Q86Z02); conditions: singlicate
Sequence of 320 wild-type protein kinases (Homo sapiens, UniProt Q86Z02) (Q86Z02 whole entry): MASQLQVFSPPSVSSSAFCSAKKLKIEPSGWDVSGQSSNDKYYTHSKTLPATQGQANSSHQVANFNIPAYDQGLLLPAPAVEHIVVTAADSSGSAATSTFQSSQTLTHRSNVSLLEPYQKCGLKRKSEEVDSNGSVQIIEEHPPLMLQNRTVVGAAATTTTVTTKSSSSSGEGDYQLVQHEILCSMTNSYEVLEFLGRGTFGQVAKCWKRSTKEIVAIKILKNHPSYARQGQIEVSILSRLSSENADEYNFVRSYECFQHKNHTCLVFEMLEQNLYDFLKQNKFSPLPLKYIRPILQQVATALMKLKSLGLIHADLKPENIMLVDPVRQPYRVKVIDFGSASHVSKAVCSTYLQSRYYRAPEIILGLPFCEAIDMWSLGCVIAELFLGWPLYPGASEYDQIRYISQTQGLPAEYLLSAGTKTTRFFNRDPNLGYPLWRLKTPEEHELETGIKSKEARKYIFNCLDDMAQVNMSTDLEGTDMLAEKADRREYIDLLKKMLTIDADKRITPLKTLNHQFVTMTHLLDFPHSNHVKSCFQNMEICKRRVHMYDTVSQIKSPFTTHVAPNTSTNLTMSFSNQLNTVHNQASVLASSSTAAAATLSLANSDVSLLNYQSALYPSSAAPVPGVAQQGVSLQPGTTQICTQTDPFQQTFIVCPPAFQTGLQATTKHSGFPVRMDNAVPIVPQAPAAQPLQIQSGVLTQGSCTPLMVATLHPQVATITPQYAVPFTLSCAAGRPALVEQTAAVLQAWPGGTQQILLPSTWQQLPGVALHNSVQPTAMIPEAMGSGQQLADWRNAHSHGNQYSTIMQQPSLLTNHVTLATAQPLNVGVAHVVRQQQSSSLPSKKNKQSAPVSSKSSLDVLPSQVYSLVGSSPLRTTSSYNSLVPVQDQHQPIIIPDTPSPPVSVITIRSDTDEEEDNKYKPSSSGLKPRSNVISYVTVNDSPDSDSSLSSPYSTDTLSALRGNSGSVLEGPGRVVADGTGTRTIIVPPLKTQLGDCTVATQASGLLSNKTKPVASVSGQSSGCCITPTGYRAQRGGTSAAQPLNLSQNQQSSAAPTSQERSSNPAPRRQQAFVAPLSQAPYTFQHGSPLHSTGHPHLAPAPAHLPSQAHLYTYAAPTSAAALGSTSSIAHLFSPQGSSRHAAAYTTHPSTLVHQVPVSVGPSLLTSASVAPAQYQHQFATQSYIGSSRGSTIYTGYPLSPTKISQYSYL
Description: as §1

[7] = target: T2, 320 wild-type protein kinases (Homo sapiens, UniProt Q96PF2); conditions: kinase TSK2, singlicate
T2 sequence (Q96PF2 1-358): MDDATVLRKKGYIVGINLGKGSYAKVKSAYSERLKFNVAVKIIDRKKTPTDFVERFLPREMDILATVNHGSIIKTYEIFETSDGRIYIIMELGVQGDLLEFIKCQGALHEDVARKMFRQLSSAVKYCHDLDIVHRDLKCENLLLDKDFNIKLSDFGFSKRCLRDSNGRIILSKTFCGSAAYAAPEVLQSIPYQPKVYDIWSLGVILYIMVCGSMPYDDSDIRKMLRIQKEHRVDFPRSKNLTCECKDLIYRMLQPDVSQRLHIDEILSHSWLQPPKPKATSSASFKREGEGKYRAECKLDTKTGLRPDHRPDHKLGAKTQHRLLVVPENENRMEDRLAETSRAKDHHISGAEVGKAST
Description: as §1

[8] = target: 320 wild-type protein kinases (Homo sapiens, UniProt P16234); conditions: PDGFR-alpha, singlicate
Sequence of 320 wild-type protein kinases (Homo sapiens, UniProt P16234) (P16234 24-1089): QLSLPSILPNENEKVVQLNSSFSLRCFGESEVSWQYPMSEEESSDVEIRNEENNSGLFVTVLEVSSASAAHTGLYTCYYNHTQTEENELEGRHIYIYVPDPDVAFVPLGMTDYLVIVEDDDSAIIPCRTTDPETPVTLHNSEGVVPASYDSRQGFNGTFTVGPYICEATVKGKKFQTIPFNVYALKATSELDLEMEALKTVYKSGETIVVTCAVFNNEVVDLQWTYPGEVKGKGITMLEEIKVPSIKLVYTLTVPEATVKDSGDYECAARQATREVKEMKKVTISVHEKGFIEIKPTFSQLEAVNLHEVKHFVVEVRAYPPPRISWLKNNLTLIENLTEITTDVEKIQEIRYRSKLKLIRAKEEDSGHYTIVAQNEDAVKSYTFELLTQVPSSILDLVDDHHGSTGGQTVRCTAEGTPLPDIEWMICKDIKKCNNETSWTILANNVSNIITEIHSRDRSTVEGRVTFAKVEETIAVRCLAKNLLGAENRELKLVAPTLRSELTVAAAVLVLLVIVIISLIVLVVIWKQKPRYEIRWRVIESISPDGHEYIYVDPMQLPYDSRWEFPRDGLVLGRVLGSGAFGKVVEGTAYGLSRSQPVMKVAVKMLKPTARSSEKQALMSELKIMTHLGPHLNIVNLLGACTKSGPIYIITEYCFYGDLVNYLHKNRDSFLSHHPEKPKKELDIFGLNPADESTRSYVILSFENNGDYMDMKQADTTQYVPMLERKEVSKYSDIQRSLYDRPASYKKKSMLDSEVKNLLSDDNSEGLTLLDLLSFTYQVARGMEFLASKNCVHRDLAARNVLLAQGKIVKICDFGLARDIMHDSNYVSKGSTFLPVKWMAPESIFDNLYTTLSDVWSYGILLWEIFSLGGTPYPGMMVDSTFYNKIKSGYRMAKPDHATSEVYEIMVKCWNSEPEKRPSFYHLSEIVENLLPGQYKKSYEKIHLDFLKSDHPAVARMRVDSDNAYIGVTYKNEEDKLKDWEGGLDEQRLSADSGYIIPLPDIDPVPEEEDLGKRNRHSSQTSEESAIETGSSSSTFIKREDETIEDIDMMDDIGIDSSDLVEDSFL
Description: as §1

[9] = target: 320 wild-type protein kinases (Homo sapiens, UniProt P24723); conditions: PKC-eta, singlicate
Sequence of 320 wild-type protein kinases (Homo sapiens, UniProt P24723) (P24723 whole entry): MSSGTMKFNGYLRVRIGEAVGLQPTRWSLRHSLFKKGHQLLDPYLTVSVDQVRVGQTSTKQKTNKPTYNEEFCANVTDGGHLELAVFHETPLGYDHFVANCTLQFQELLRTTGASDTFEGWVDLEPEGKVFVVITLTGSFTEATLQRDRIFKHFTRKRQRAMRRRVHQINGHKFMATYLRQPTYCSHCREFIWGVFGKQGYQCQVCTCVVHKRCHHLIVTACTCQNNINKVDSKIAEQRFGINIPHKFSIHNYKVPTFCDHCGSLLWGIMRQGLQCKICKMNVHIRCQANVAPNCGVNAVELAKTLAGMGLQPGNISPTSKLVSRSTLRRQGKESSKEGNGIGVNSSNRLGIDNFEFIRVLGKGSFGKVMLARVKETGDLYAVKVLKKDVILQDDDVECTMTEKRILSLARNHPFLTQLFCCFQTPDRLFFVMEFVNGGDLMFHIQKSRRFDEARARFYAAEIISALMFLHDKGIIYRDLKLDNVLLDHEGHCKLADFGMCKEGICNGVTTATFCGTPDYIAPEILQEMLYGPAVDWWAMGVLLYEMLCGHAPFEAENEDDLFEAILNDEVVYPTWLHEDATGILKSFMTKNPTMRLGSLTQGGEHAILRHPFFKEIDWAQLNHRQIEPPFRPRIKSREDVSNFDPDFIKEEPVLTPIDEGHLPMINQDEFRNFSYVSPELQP
Description: as §1

[10] = target: 320 wild-type protein kinases (Homo sapiens, UniProt Q7KZI7); conditions: singlicate
Description: as §1

[11] = target: 320 wild-type protein kinases (Homo sapiens, UniProt Q9P1W9); conditions: singlicate
Sequence of 320 wild-type protein kinases (Homo sapiens, UniProt Q9P1W9) (Q9P1W9 whole entry): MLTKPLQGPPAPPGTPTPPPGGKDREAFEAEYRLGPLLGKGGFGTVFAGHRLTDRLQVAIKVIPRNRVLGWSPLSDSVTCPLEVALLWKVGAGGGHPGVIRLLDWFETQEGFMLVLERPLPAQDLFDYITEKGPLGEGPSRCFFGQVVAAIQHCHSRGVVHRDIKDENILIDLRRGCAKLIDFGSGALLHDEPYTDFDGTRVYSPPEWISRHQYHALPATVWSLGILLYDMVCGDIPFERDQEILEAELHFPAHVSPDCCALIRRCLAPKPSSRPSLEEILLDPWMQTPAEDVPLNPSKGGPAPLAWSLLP
Description: as §1

[12] = target: T3, 320 wild-type protein kinases (Homo sapiens, UniProt P36897); conditions: kinase TGFB-R1, singlicate
T3 sequence (P36897 34-503): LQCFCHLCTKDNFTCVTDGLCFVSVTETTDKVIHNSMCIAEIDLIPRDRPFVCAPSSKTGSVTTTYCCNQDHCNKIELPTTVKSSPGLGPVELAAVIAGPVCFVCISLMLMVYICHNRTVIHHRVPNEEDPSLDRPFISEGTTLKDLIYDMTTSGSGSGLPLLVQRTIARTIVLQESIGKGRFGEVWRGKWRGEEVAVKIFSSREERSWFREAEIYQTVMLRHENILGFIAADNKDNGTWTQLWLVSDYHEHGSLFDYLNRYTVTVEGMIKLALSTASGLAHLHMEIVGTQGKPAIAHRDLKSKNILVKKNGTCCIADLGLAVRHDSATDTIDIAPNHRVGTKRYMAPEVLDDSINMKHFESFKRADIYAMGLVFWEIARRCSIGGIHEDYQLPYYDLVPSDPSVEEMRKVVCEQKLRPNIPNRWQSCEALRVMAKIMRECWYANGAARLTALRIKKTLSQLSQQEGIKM
Description: as §1

[13] = target: 320 wild-type protein kinases (Homo sapiens, UniProt Q04912); conditions: kinase RON, singlicate
Description: as §1

[14] = target: 320 wild-type protein kinases (Homo sapiens, UniProt P05129); conditions: PKC-gamma, singlicate
Description: as §1

[15] = target: 320 wild-type protein kinases (Homo sapiens, UniProt Q16513); conditions: singlicate
Description: as §1

| Structure (SMILES) | Residual activity, TTBK1 ([1]; assay conc. 1.0E-06 M) | Residual activity, TTBK1 ([1]; assay conc. 1.0E-07 M) | Residual activity, VEGF-R3 ([2]; assay conc. 1.0E-06 M) | Residual activity, VEGF-R3 ([2]; assay conc. 1.0E-07 M) | Residual activity ([3]; 1.0E-06 M) | Residual activity ([3]; 1.0E-07 M) | Residual activity, TRK-A ([4]; assay conc. 1.0E-06 M) | Residual activity, TRK-A ([4]; assay conc. 1.0E-07 M) | Residual activity, PRKG1 ([5]; assay conc. 1.0E-06 M) | Residual activity, PRKG1 ([5]; assay conc. 1.0E-07 M) | Residual activity ([6]; HIPK1, 1.0E-06 M) | Residual activity ([6]; HIPK1, 1.0E-07 M) | Residual activity, TSK2 ([7]; assay conc. 1.0E-06 M) | Residual activity, TSK2 ([7]; assay conc. 1.0E-07 M) | Residual activity ([8]; 1.0E-06 M) | Residual activity ([8]; 1.0E-07 M) | Residual activity ([9]; 1.0E-06 M) | Residual activity ([9]; 1.0E-07 M) | Residual activity ([10]; MARK2, 1.0E-06 M) | Residual activity ([10]; MARK2, 1.0E-07 M) | further results |
| --- | --- | --- | --- | --- | --- | --- | --- | --- | --- | --- | --- | --- | --- | --- | --- | --- | --- | --- | --- | --- | --- |
| C#Cc1cc(Nc2ncnc3cc(I)ccc23)ccc1Cl [Compound 41] | 102 % of control | 113 % of control | 119 % of control | 121 % of control | 84 % of control | 97 % of control | 107 % of control | 100 % of control | 72 % of control | 88 % of control | 87 % of control | 98 % of control | 123 % of control | 113 % of control | 117 % of control | 118 % of control | 91 % of control | 93 % of control | 114 % of control | 104 % of control | Residual activity ([11]; PIM2, 1.0E-06 M): 101 % of control; Residual activity ([11]; PIM2, 1.0E-07 M): 112 % of control; Residual activity, TGFB-R1 ([12]; assay conc. 1.0E-06 M): 81 % of control; Residual activity, TGFB-R1 ([12]; assay conc. 1.0E-07 M): 86 % of control; Residual activity, RON ([13]; assay conc. 1.0E-06 M): 63 % of control; Residual activity, RON ([13]; assay conc. 1.0E-07 M): 77 % of control; Residual activity ([14]; 1.0E-06 M): 89 % of control; Residual activity ([14]; 1.0E-07 M): 99 % of control; Residual activity ([15]; PRK2, 1.0E-06 M): 88 % of control; Residual activity ([15]; PRK2, 1.0E-07 M): 85 % of control |
| C#Cc1cc(Nc2ncnc3cc(OC)c(OC)cc23)ccc1Cl [Compound 45] | 101 % of control | 109 % of control | 112 % of control | 120 % of control | 91 % of control | 106 % of control | 87 % of control | 106 % of control | 101 % of control | 106 % of control | 80 % of control | 79 % of control | 331 % of control | 109 % of control | 95 % of control | 105 % of control | 75 % of control | 90 % of control | 90 % of control | 103 % of control | Residual activity ([11]; PIM2, 1.0E-06 M): 100 % of control; Residual activity ([11]; PIM2, 1.0E-07 M): 89 % of control; Residual activity, TGFB-R1 ([12]; assay conc. 1.0E-06 M): 75 % of control; Residual activity, TGFB-R1 ([12]; assay conc. 1.0E-07 M): 84 % of control; Residual activity, RON ([13]; assay conc. 1.0E-06 M): 82 % of control; Residual activity, RON ([13]; assay conc. 1.0E-07 M): 90 % of control; Residual activity ([14]; 1.0E-06 M): 88 % of control; Residual activity ([14]; 1.0E-07 M): 87 % of control; Residual activity ([15]; PRK2, 1.0E-06 M): 95 % of control; Residual activity ([15]; PRK2, 1.0E-07 M): 92 % of control |
